The results in this text go back to patent US20250367229A1, “Treatment of Immune-Related Disorders, Kidney Disorders, Liver Disorders, Hemolytic Disorders, and Oxidative Stress-Associated Disorders Using NRH, NARH and Reduced Derivatives Thereof” (MitoPower LLC, priority 2021, published 2025).

Data set [1] is described as follows: Distribution of intraperitoneally injected NRH to whole blood, kidney and liver (LCMS/MS). It counts as in vivo, Wistar Han rat. The note with it: single intraperitoneal injection, 500 mg/kg, after 4 hr. On the procedure: Freshly weighed NRH (100 mg) was dissolved in 500 μL sterile IP water. The NRH solution was intraperitoneally injected into a healthy, male Wistar Han rat (200 g) at a single dose of 500 mg/kg. 500 μL of sterile IP water was intraperitoneally injected into another healthy, male Wistar Han rat (200 g) as a control.
The animals were euthanized by cervical dislocation under anesthesia after 4 hr. Whole blood was collected in K2EDTA vacutainer tubes by cardiac puncture using a 2 mL syringe. The liver and kidney were harvested subsequently by dissection. The tissues were placed in a petridish, rinsed with ice-cold saline, and then weighed. 72 mg of liver of the treated animal and 74.3 mg of liver of the untreated animal were homogenized, and 71.6 mg of kidney of the treated animal and 70.7 mg of kidney of the untreated animal were homogenized. Homogenization of the tissues was carried out separately in 3 mL of ice-cold methanol (about 20 mg/mL of tissue in methanol). The homogenate was snap-frozen in liquid nitrogen and maintained at −80° C. for analysis. The blood samples were maintained at 2-8° C. for analysis.
250 μL of whole blood from the K2EDTA tubes was added to a tube containing 50 μL of 500 ng/ml of tolbutamide as the internal standard. 600 μL of ice-cold HPLC-grade methanol was added to this mixture for extraction of nicotinamide adenine dinucleotide (NAD^+) and NRH. The resulting mixture was mixed well and centrifuged at 12500 rpm for 10 min. The supernatant was measured for NAD^+ and NRH by LCMS/MS. For the liver and kidney tissues, 250 μL of the tissue homogenate was processed in the same manner.

The next data set has as its system CD4^+ T cells. The experiment in a line: Ex vivo polyclonal immune activation model: cytokine production in CD4+ T cells. It is filed as cell-based, human. The note with it: stimulated with anti-CD3 and anti-CD28 antibodies; data not shown. As for the experimental part:
Heparinized venous blood was collected from healthy human adult donors. Peripheral blood mononuclear cells (PBMCs) were isolated by Ficoll-Hypaque density-gradient centrifugation. PBMCs (1.0×10^6) were seeded in round-bottom, 96-well plates in 200 μL of medium, unstimulated or stimulated with an anti-CD3 antibody ([…], clone-HIT3a, Biolegend) plus an anti-CD28 antibody (1 μg/mL, clone-CD28.2, Biolegend) to induce T-cell activation, and incubated in cell-culture medium. The PBMCs were unstimulated or stimulated with anti-CD3 and anti-CD28 antibodies to induce T-cell activation, in the absence or presence of 250 μM NRH. After 18 hours of incubation, lymphocytes were analyzed for intracellular levels of IFN-γ, TNF-α and IL-2 by flow cytometry. Intracellular cytokine production was stopped by treating the cells with Golgi stop after 1 hr of treatment.

In data set [2] the test system is peripheral blood mononuclear cells (PBMCs). The experiment in a line: Extracellular acidification rate (ECAR, a measure of glycolysis) in activated PBMCs, Seahorse XF. The note with it: 250 μM, 4 hr, PBMCs stimulated with anti-CD3 and anti-CD28 antibodies. It counts as cell-based, human. On the procedure:
PBMCs (1.5×10^6) obtained from a healthy human adult donor were unstimulated or stimulated with anti-CD3 and anti-CD28 antibodies (1 μg/mL each) to induce T-cell activation, in the absence or presence of 250 μM NRH for 4 hr. The cells were then washed and plated on poly-D-lysine-coated Seahorse XF microplates at a density of 3×10^5 cells per well (5 replicates). The plates were centrifuged briefly and incubated at 37° C. in a non-CO2 incubator for 30 min to settle the cells in the bottom of the plate. Extracellular acidification rate (ECAR, a measure of glycolysis) and oxygen consumption rate (OCR, a measure of oxidative phosphorylation) were determined using a Seahorse XF cell mito stress test kit and a Seahorse Xfe96 analyzer (Agilent Technologies, Santa Clara, California) under basal condition or in response to 1.0 μM oligomycin (an inhibitor of ATP synthase), 1.5 μM carbonyl cyanide-p-trifluoromethoxyphenylhydrazone (FCCP, a mitochondrial uncoupler), 0.5 μM rotenone (an inhibitor of electron transport at complex I) and antimycin A (an inhibitor of electron transport at cytochrome c reductase). PBMCs include monocytes and lymphocytes including T cells, B cells and natural killer cells.

Another data set has as its system red blood cells (RBCs). The experiment in a line: H2O2-induced hemolysis in vitro. It is filed as cell-based. The note with it: 2000, 200 and 20 μM, pre-incubation 1 hr at 37° C., then H2O2 4 hr. On the procedure: Individual test compounds were dissolved in 0.9% normal saline to prepare 0.3 M stock solutions. A 0.3 M stock solution was added to a 20% suspension of washed red blood cells (RBCs) in saline to obtain final concentrations of 2000 μM, 200 μM and 20 μM of the compound. The RBC suspensions were incubated with the test compound at 37° C. for 1 hr prior to testing. A 2.5% H2O2 solution was prepared fresh by dilution with normal saline and chilled at 2-8° C. before use. Each RBC suspension containing the test compound was split into tubes A and B. 250 μL of the chilled H2O2 solution was added to 250 μL of RBC suspension in each tube while maintaining the tubes in an ice bath. The tubes were incubated at 37° C. for 4 hr, and then 4.5 mL of saline or de-ionized water was added to tube A or tube B, respectively. After the tubes were incubated for 10 min, the mixture in the tubes was centrifuged at 1800 g, and then absorbance was measured in the supernatant at 540 nm. The percentage of hemolysis was calculated as: […]

A short description of data set [3]: Stability in human serum in vitro (absorbance over time). The note with it: 100 μM, 37° C. It counts as in vitro ADME. As for the experimental part:
Three blood samples were collected from healthy human donors with the same blood group in serum separator vacutainer gel tubes. The samples were centrifuged at 1,800 g to separate serum. The serum samples obtained were pooled together into a separate tube.
NR, NRH and NRH-triacetate (NRHTA) were initially dissolved in DMSO and then diluted with normal saline to obtain a 1 mM stock solution of each compound. 100 μL of stock solution was added to 900 μL of pooled serum to assess the stability of the test compound in human serum. 200 μL of saline with 1,800 μL of pooled serum was used to prepare a solution for blanking and as a reference measurement. The stock solutions were diluted in the pooled serum and normal saline to prepare 100 μM solutions of the test compounds.
In previous experiments, spectral scans between 190 nm and 1100 nm were performed to determine absorbance maxima for NR, NRH and NRHTA, which have maximal absorbance at 265 nm, 340 nm and 331 nm, respectively, in solution.
The stability of a test compound in human serum was determined by a change in the concentration of the compound as measured by a change in absorbance at the maximal absorbance wavelength for the compound as a function of time. The test compounds at 100 μM were incubated in human serum at 37° C. Absorbance measurements were made at 0 min (T0), 5 min, 30 min, 120 min, 240 min, 360 min and 1440 min (24 hr). The relative change in absorbance compared to T0 was plotted and used for statistical analysis. The analysis was performed in triplicates.

With `NC(=O)C1=CN([C@@H]2O[C@H](CO)[C@@H](O)[C@H]2O)C=CC1` [NRH, N-(β-D-ribofuranosyl)dihydronicotinamide], in data set [1], the “concentration of NRH in the kidney (area ratio NRH/IS) versus vehicle” value is given as “increased concentrations”, the “concentration of NRH in the liver (area ratio NRH/IS) versus vehicle” value is “increased concentrations” and the “concentration of NRH in whole blood (area ratio NRH/IS) versus vehicle” value is “increased concentrations”. Besides, the “production of pro-inflammatory cytokines (e.g., TNF-α, IL-2, IFN-γ) by CD4+ T cells” value in the data set on CD4^+ T cells is “reduced production of pro-inflammatory cytokines”. In addition, the “extracellular acidification rate (ECAR, a measure of glycolysis) in activated PBMCs” value in data set [2] is given as “significantly reduced”. For the same compound, the H2O2-induced hemolysis entry in the data set on red blood cells (RBCs) is recorded as “reduced H2O2-induced hemolysis”. In addition, in data set [3] (6 hr), the “compound remaining intact in human serum after 6 hr” value is “Most of both NRH and NRH-triacetate remained intact”. Moreover, the “stability in human serum compared with NR” value in data set [3] (up to 24 hr, p<0.05) is “much more stable”.
